“Also recorded” adds a separate entry of the source.
B1: PF-S003: peptide having multiple activities (peptide)
chain 1: ALALLKQDLLNFEGRGRIITSTYLQFNEGCVP
chain 2: B1 chain 1
modifications: Peptide with targeting and/or antimicrobial activity
B2: PF-612: peptide having multiple activities (peptide)
chain 1: GTTLKYGLERQLKIDIHPEITIINLNGGADEFAKL
chain 2: B2 chain 1
modifications: Peptide with targeting and/or antimicrobial activity

Experiments:
microorganisms [1] = assay: Morphology, biofilm and growth disrupting peptides (Table 5); assay type: cell-based; set-up: key: A: Peptide aggregates; B: Less hyphal formation; Clumps; Diffuse clumps and small polyps; F: Diffuse growth; H: Thin; I: Growth inhibition; Microcolony formation; Rippled; Small polyps; Thick; W: Halo formation on top, microlonies on bottom
Source text: In certain embodiments peptides that induce alterations in phenotype or other biological activities can also be used as antimicrobial effector moieties.

microorganisms [2] = assay: Peptide activities: targeting/binding, antimicrobial, growth or phenotype altering (Tables 7, 8); assay type: cell-based; conditions: peptides having multiple activities
microorganisms [3] = assay: Targeting peptide binding to target microorganisms (Tables 3, 10, 12); conditions: microorganism(s) the targeting peptide binds, preferably 1x PBS
[4] = binding in aqueous buffers that varied with peptide solubility
[5] = binding in aqueous buffers varied with peptide solubility

Row | Molecule | Activities (microorganisms [2]) | Target(s) (microorganisms [3]; [5]) | Organism, effect (microorganisms [1]; S. mutans) | Organism, effect (microorganisms [1]; S. pneumoniae) | Organism, effect (microorganisms [1]; MRSA) | other results
1 | ALDCSEQSVILWYETILDKIVGVIK [PF-028] | G B |  |  |  |  | Organism, effect: C. jeikeium (microorganisms [1]; C. jeikeium): C. jeikeium (M); Organism, effect: MRSA (microorganisms [1]; MRSA): MRSA (R); Organism, effect: S. epidermidis (microorganisms [1]; S. epidermidis): S. epidermidis (M); Target(s) (microorganisms [3]; [4]): S. epidermidis and M. luteus and MRSA
2 | DEIKVSDEEIEKFIKENNL [PF-597] | G B | P. mirabilis |  |  |  | Organism, effect (microorganisms [1]; E. faecalis): E. faecalis (A)
3 | GNVHPESDFHNLIQFIKTFLYFTIFFKYFL [PF-C290] | G B | A. naeslundii; also recorded: F. nucleatum; also recorded: P. gingivalis; also recorded: S. mutans; also recorded: T. denticola | S. mutans (F) |  |  | 
4 | HCVIGNVVDIANLLKRRAVYRDIADVIKMR [PF-071] | G B |  |  |  |  | Organism, effect: B. subtilis (microorganisms [1]; B. subtilis): B. subtilis (D); Organism, effect: C. albicans (microorganisms [1]; C. albicans): C. albicans (B); Organism, effect: C. jejuni (microorganisms [1]; C. jejuni): C. jejuni (A); Organism, effect: M. luteus (microorganisms [1]; M. luteus): M. luteus (R); Organism, effect: MRSA (microorganisms [1]; MRSA): MRSA (C); Organism, effect: S. epidermidis (microorganisms [1]; S. epidermidis): S. epidermidis (R); Organism, effect: S. pneumoniae (microorganisms [1]; S. pneumoniae): S. pneumoniae (A); Target(s) (microorganisms [3]; [4]): S. epidermidis and E. coli and P. aeruginosa and C. albicans and MRSA and S. pneumoniae and E. faecalis
5 | HKNKLNIPHIKS [PF-477] | G B | S. epidermidis; also recorded: M. luteus; also recorded: C. albicans; also recorded: S. pneumoniae; also recorded: C. jeikeium; also recorded: C. jejuni |  | S. pneumoniae (H) |  | 
6 | KKFKIFVIINWFYHKYIILNFEENF [PF-C085] | G B | A. naeslundii; also recorded: F. nucleatum; also recorded: P. gingivalis; also recorded: S. mutans; also recorded: T. denticola | S. mutans (F) |  |  | 
7 | LHVIRPRPELSELKFPITKILKVNKQGLKK [PF-752] | G B | S. epidermidis and E. coli and MRSA and S. pneumoniae and E. faecalis |  | S. pneumoniae (C) |  | 
8 | LIQKGLNQTFIVVIRLNNFIKKS [PF-013] | G B |  |  |  |  | Organism, effect: C. jeikeium (microorganisms [1]; C. jeikeium): C. jeikeium (D); Organism, effect: M. luteus (microorganisms [1]; M. luteus): M. luteus (D); Organism, effect: MRSA (microorganisms [1]; MRSA): MRSA (R); Organism, effect: S. epidermidis (microorganisms [1]; S. epidermidis): S. epidermidis (C); Target(s) (microorganisms [3]; [4]): M. luteus and P. mirabilis and E. coli and P. aeruginosa and MRSA and S. pneumoniae and C. jeikeium and C. jejuni
9 | LMFFSENMDKRDTLSGKFRYFAGSKVIKLMNWLSENGK [PF-226] | G B | A. baumannii |  |  |  | Organism, effect: M. luteus (microorganisms [1]; M. luteus): M. luteus (T); Organism, effect: S. epidermidis (microorganisms [1]; S. epidermidis): S. epidermidis (C)
10 | LNFRAENKILEKIHISLIDTVEGSA [PF-575] | G B | M. luteus and E. coli and C. albicans and MRSA and S. pneumoniae and E. faecalis and C. jeikeium |  | S. pneumoniae (A) |  | Organism, effect (microorganisms [1]; C. jeikeium): C. jeikeium (A); Organism, effect (microorganisms [1]; C. jejuni): C. jejuni (R); Organism, effect (microorganisms [1]; P. aeruginosa): P. aeruginosa (A)
11 | LSPRPIIVSRRSRADNNNDWSR [PF-143] | G B | S. epidermidis and MRSA and C. jeikeium |  |  |  | Organism, effect: P. aeruginosa (microorganisms [1]; P. aeruginosa): P. aeruginosa (C)
12 | MQIFYIKTKIFLSFFLFLLIFSQCFYKIEE [PF-442] | G B | S. epidermidis; also recorded: E. coli; also recorded: C. albicans; also recorded: S. pneumoniae; also recorded: E. faecalis |  | S. pneumoniae (C) | MRSA (M) | 
13 | NTNDLLQAFELMGLGMAGVFIVLGILYIVAELLIKIFPVNN [PF-C194] | G B | A. naeslundii; also recorded: F. nucleatum; also recorded: P. gingivalis; also recorded: S. mutans; also recorded: T. denticola | S. mutans (F) |  |  | Organism, effect (microorganisms [1]; F. nucleatum): F. nucleatum (T); Organism, effect (microorganisms [1]; P. gingivalis): P. gingivalis (T)
14 | PF-002: peptide having multiple activities (NDDAQ; Peptide with targeting and/or antimicrobial activity) | G B |  |  |  |  | Organism, effect: B. subtilis (microorganisms [1]; B. subtilis): B. subtilis (R); Organism, effect: S. pneumoniae (microorganisms [1]; S. pneumoniae): S. pneumoniae (H); Target(s) (microorganisms [3]; [4]): S. epidermidis; also recorded: P. mirabilis; also recorded: C. albicans; also recorded: C. jeikeium; also recorded: C. jejuni
15 | PF-619: peptide having multiple activities (chain 1 WSRVPGHSDTGWKVWHRW; chain 2 WSRVPGHSDTGWKVWHRW; Peptide with targeting and/or antimicrobial activity) | G B |  |  | S. pneumoniae (C) | MRSA (M) | Organism, effect (microorganisms [1]; E. coli): E. coli (C); Organism, effect (microorganisms [1]; S. epidermidis): S. epidermidis (M)
16 | PF-630: peptide having multiple activities (chain 1 IPATPIIHS; chain 2 IPATPIIHS; Peptide with targeting and/or antimicrobial activity) | G B |  |  |  | MRSA (M) | 
17 | PF-634: peptide having multiple activities (chain 1 MPKARPVNHNKKKSKITIKSNFTLFYMFNP; chain 2 MPKARPVNHNKKKSKITIKSNFTLFYMFNP; Peptide with targeting and/or antimicrobial activity) | G B |  | S. mutans (D) | S. pneumoniae (D) | MRSA (D) | Organism, effect (microorganisms [1]; E. coli): E. coli (C); Organism, effect (microorganisms [1]; M. luteus): M. luteus (C); Organism, effect (microorganisms [1]; P. mirabilis): P. mirabilis (C); Organism, effect (microorganisms [1]; S. epidermidis): S. epidermidis (D)
18 | PF-770: peptide having multiple activities (GVGIGFIMMGVVGYAVKLVHIPIRYLIV; Peptide with targeting and/or antimicrobial activity) | G B |  | S. mutans (D) | S. pneumoniae (C) | MRSA (D) | Organism, effect (microorganisms [1]; E. coli): E. coli (C); Organism, effect (microorganisms [1]; M. luteus): M. luteus (C); Organism, effect (microorganisms [1]; P. mirabilis): P. mirabilis (C); Organism, effect (microorganisms [1]; S. epidermidis): S. epidermidis (D)
19 | B1 | G B |  |  | S. pneumoniae (D) | MRSA (M) | Organism, effect (microorganisms [1]; B. subtilis): B. subtilis (A); Organism, effect (microorganisms [1]; C. albicans): C. albicans (A); Organism, effect (microorganisms [1]; C. jeikeium): C. jeikeium (D); Organism, effect (microorganisms [1]; C. jejuni): C. jejuni (D); Organism, effect (microorganisms [1]; M. luteus): M. luteus (R); Organism, effect (microorganisms [1]; P. aeruginosa): P. aeruginosa (A); Organism, effect (microorganisms [1]; S. epidermidis): S. epidermidis (R)
20 | B2 | G B |  | S. mutans (F) | S. pneumoniae (C) | MRSA (C) | Organism, effect (microorganisms [1]; E. coli): E. coli (C); Organism, effect (microorganisms [1]; M. luteus): M. luteus (A); Organism, effect (microorganisms [1]; P. mirabilis): P. mirabilis (C); Organism, effect (microorganisms [1]; S. epidermidis): S. epidermidis (C)

Reference: US20110039763A1, “TARGETED ANTIMICROBIAL MOIETIES” (C3 JIAN, INC., priority 2009, published 2011)
